Consider 40 molecules from ChEMBL document CHEMBL1201862, “PubChem BioAssay data set” (2004).

Active and inactive are the calls of the source.

Assay [1] has as its target T1, Cytochrome P450 1A2 (Homo sapiens, UniProt P05177).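 Also: PubChem cytochrome P450 panel assay, CYP1A2 panel member.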
T1 sequence (P05177 whole entry): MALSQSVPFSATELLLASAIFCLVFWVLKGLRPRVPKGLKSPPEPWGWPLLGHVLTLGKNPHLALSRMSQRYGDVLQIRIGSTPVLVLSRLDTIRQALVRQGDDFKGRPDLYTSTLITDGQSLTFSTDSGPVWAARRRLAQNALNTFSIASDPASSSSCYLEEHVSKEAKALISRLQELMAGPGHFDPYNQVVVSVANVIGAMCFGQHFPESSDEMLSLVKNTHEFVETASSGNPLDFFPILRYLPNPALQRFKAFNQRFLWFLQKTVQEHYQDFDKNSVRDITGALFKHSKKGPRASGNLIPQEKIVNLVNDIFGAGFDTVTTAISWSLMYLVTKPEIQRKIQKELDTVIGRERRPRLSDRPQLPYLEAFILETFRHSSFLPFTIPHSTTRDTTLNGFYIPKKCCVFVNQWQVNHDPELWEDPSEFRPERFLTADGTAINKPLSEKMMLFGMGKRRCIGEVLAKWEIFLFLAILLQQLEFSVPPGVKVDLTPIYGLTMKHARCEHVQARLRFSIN

The target in assay [2] is Cytochrome P450 2D6 (Homo sapiens, UniProt P10635).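 Also: CYP2D6 member of a cytochrome P450 panel assay.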
Assay [3] concerns the target Cytochrome P450 2C19 (Homo sapiens, UniProt P33261). As to the kind of experiment: Cytochrome panel assay with activity outcomes. Panel member name: p450-cyp2c19 Compounds with AC50 equal or less than 10 uM are considered active. The following applies: read-out: AC50. In kind it is functional.
Assay [4] has as its target Cytochrome P450 3A4 (Homo sapiens, UniProt P08684).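 Also: CYP3A4 tested as one member of a cytochrome P450 panel screen.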
In assay [5] the target is Luciferin 4-monooxygenase (Photinus pyralis, UniProt P08659). As to the kind of experiment: firefly luciferase enzyme inhibitors, dose response, biochemical, luminescence (AID 1891).
The nature of assay [6]: Luminescence Cell-Based Dose Confirmation HTS to Identify Inhibitors of Platelet Dense Granule Release. [Related pubchem assays: 1663 (Primary HTS), 1678 (Summary of Project)]. In kind it is functional.
The target of assay [7] is T2, Corticotropin-releasing factor receptor 2/Corticotropin-releasing factor-binding protein (Homo sapiens, UniProt P24387+Q13324).
T2 sequence (Q13324 whole entry): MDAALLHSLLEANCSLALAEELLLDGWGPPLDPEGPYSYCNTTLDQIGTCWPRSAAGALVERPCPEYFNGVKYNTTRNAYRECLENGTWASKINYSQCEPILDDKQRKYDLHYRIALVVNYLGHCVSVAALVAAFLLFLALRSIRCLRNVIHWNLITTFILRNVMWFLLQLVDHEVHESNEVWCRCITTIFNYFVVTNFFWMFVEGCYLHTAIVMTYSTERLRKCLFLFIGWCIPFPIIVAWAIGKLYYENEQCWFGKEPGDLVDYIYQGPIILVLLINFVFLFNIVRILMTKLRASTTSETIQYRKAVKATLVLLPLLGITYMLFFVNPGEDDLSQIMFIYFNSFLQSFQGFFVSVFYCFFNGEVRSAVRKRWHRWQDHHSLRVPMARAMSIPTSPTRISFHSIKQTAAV
T2 sequence (P24387 whole entry): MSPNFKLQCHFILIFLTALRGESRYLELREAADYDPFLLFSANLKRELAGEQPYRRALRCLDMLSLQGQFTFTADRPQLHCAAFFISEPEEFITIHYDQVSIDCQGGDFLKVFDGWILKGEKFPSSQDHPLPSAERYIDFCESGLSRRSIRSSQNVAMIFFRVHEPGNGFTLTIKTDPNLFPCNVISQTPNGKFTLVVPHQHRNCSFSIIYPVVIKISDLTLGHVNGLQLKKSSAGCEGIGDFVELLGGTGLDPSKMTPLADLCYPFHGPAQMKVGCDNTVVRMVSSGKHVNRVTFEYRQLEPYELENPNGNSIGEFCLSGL
The assay is described as follows: activators of CRF receptor 2 with binding protein – uHTS hits, confirmation (AID 602473). In kind it is functional. Particulars: read-out: EC50_Mean.

Assay [8] deals with T2, Corticotropin-releasing factor receptor 2/Corticotropin-releasing factor-binding protein. As to the kind of experiment: Dose Response confirmation of uHTS hits for small molecule antagonists of the CRF-binding protein and CRF-R2 receptor complex. The following applies: read-out: IC50_Mean. In kind it is functional.
Assay [9] concerns the target Paired box protein Pax-8 (Homo sapiens, UniProt Q06710). The assay is described as follows: inhibitors of PAX8-driven TPO luciferase reporter, dose response, RMG-I cells, cherry-pick (AID 687027).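 Also: luciferase reporter driven by Pax8 target thyroperoxidase promoter measured by SteadyGlo luminescence.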 In kind it is functional, cell-based. A general note: Reporter assays use an easily measured gene product as a stand-in for the process of interest.
In assay [10] the target is Cytochrome P450 2C9 (Homo sapiens, UniProt P11712).
Assay [11] in a line: Luminescence Cell-Based Dose Response HTS to Identify Inhibitors of 5'UTR Stem-Loop Driven Prion Protein mRNA Translation in H4 Neuroglioblastoma Cells. [Related pubchem assays: 1827 (Project Summary), 1813 (Primary HTS)]. In kind it is functional.
Assay [12] can be described thus: inhibitors of SNCA 5'UTR-driven reporter translation, confirmation, H4 neuroglioma cells, luminescence (AID 1988). In kind it is functional, cell-based.
The nature of assay [13]: inhibitors of firefly luciferase expression or activity, dose response, H4 neuroglioma cells, luminescence (AID 1990). In kind it is functional, cell-based.
Assay [14] is described as follows: NIH-3T3 fibroblast cytotoxicity, dose response, cytotoxicity control, cell-based, fluorescence, Alamar Blue, secondary assay (AID 2327).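 Also: NIH-3T3 mouse fibroblasts cultured with fluconazole at 8 µg/mL.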 In kind it is functional. For orientation: The colour change of resazurin is a common sign of viable cells or microbes.
The subject of assay [15] is INS1. The assay is described as follows: beta cell apoptosis inhibitors, cytokine rescue, dose response, luminescence, retest (AID 449756).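 Also: cell death triggered by IL-1 beta plus TNF-alpha plus IFN-gamma mixture; protective hits raise ATP signal compared with cytokine alone wells.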 In kind it is functional, cell-based. The following applies: Rattus norvegicus.

Cytochrome P450 2D6, sequence (P10635 whole entry): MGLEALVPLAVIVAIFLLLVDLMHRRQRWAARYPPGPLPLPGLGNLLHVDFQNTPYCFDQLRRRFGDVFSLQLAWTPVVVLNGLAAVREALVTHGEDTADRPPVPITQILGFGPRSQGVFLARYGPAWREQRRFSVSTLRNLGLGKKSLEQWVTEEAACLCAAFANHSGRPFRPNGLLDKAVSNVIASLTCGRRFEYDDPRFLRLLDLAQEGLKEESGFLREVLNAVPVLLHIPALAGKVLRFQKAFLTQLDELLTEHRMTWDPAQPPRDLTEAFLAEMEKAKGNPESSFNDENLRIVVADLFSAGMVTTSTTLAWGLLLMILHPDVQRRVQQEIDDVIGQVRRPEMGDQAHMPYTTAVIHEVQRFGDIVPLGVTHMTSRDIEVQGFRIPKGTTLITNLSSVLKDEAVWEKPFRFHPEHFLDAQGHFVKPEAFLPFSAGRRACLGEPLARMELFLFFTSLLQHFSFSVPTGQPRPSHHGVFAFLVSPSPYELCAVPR
Luciferin 4-monooxygenase, sequence (P08659 whole entry): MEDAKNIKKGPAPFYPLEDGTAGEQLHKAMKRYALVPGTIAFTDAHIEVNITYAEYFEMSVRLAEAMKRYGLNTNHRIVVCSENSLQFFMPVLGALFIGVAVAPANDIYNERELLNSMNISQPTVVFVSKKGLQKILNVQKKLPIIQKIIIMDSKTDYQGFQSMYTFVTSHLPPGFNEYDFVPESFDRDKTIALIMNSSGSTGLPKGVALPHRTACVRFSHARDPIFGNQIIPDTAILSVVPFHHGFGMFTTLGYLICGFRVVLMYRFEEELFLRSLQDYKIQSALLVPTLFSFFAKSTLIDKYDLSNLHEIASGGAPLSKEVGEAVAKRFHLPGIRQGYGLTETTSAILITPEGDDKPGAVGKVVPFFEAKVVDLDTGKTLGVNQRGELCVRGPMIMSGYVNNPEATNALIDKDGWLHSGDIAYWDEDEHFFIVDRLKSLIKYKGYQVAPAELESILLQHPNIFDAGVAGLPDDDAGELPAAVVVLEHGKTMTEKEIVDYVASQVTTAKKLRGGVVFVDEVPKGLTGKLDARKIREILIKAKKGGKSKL
Paired box protein Pax-8, sequence (Q06710 whole entry): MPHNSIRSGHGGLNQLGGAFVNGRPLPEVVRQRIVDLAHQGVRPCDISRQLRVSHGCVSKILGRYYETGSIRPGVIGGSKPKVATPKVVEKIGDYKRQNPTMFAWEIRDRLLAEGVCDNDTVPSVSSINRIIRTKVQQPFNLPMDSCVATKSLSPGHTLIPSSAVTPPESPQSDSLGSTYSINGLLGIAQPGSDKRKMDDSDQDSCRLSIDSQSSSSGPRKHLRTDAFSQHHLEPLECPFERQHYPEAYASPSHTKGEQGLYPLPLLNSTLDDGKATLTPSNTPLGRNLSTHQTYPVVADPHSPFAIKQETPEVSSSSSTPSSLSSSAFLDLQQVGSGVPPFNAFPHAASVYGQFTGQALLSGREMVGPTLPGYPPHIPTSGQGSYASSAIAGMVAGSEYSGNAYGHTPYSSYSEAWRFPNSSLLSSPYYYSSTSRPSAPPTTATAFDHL
Cytochrome P450 3A4, sequence (P08684 whole entry): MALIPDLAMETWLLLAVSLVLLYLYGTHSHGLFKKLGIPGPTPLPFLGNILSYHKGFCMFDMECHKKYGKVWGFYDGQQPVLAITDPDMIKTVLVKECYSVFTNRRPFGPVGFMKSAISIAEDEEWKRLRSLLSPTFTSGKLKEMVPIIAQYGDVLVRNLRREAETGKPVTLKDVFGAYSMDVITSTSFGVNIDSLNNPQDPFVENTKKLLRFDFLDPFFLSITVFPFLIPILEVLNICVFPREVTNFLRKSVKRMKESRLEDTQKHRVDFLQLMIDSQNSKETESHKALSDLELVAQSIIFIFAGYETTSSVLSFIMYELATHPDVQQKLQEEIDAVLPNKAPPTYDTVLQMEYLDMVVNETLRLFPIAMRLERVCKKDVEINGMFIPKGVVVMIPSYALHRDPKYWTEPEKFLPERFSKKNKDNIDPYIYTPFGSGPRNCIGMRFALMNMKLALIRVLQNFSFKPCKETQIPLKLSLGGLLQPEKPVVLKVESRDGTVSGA
Cytochrome P450 2C19, sequence (P33261 whole entry): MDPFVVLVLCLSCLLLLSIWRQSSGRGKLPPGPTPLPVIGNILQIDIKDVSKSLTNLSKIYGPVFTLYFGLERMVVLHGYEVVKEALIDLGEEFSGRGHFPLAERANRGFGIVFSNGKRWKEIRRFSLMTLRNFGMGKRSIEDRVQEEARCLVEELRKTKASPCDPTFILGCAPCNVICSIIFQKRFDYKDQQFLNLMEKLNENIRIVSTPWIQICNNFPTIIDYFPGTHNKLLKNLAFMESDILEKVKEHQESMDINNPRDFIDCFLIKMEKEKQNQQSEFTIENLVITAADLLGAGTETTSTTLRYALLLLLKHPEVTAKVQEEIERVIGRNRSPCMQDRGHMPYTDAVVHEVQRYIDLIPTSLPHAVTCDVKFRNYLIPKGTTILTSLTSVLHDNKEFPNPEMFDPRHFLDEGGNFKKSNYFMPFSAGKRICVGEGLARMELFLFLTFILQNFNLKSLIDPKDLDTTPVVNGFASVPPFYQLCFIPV
Cytochrome P450 2C9, sequence (P11712 whole entry): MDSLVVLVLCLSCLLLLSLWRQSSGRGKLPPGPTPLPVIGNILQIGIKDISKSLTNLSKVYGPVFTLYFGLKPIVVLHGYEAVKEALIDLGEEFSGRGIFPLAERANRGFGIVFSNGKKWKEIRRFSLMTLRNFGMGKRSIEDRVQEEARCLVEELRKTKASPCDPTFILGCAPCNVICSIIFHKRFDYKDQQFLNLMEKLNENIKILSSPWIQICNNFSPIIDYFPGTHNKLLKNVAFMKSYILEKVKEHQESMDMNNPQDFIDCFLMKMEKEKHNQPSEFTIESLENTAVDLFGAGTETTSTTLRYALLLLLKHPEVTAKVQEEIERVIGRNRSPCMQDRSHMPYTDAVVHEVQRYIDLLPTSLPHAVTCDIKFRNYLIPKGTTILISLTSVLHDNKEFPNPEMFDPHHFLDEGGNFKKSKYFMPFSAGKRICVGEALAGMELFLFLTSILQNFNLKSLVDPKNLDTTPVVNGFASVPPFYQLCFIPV

As usually defined, the AC50 is the midpoint of the concentration-response curve, whichever way the signal moves. `O=C(Oc1ccc([N+](=O)[O-])cc1)N1CCC(N2CCCCC2)CC1`: the AC50 in assay [1] was 20 µM (inconclusive); in assay [2], 39.8 µM (inconclusive).
For the molecule `CCCCCC1=C2CNC(CC(C)C)(C(=O)OC)C=C2C(C)C1=O` (stereo not given), the figures for the AC50 in assay [3], in [1] and in assay [4] were 6.31 µM (inconclusive), 25.1 µM (inconclusive) and 15.8 µM (inconclusive), respectively.
On to `CN(C)S(=O)(=O)c1cccc(NC(=O)CSc2nnnn2-c2ccccc2)c1`, for which the EC50 in assay [5] and in [6] was > 112 µM (not active) each time.
On to `CCOC(=O)c1ccc(NC(=O)CSc2nc3c(c(=O)n2C)SC(C)C3)cc1` (stereo not given), for which the EC50 in assay [5] and in assay [6] was > 112 µM (not active) each time.
In the case of `COc1cc(C#Cc2c(-c3ccccc3)n(C)c3ccccc23)cc(OC)c1`, the EC50 in assay [7] is > 53 µM (inactive). Further, in assay [8], the IC50 was > 47.1 µM (inactive).
For the molecule `CC(C)(C)C1CCc2c(sc(NC(=O)c3cc(C4CC4)on3)c2C#N)C1` (stereo not given), the EC50 in assay [5] was > 112 µM (not active); in assay [6], 23.1 µM (active).
As to `C[C@@H]1CN([C@@H](C)CO)C(=O)c2cc(NS(=O)(=O)c3ccccc3)ccc2O[C@@H](C)CCCCO[C@@H]1CN(C)Cc1ccc(C(F)(F)F)cc1`, the AC50 in assay [9] is 5.71 µM (active).
As to `COCCn1c(=O)c(-c2ccc(F)cc2)nc2cnc(N(C)C)nc21`, the AC50 was 12.6 µM (inconclusive) in assay [10] and 0.631 µM (inconclusive) in assay [2].
For `Cc1sc(NC(=O)c2ccco2)c(C(c2cccnc2)N2CCN(C)CC2)c1C` (stereo not given), in that order: 2.82 µM (inconclusive) and 12.6 µM (inconclusive).
Regarding `COCOc1ccc(Br)cc1C(=O)[C@H]1O[C@H]1c1cccc(OC)c1`, in assay [2], the AC50 is 3.16 µM (inconclusive).
Same read-out and setting: as for `ON(CCc1ccncc1)Cc1ccccc1`, the figure is 6.31 µM (inconclusive); as for `CO/N=C(/CNC(=O)c1cccc(Cl)c1)c1ccc(Cl)cc1`, 25.1 µM (inconclusive).
Consider `CC1C(C#N)=C(N)OC2=C1C(=O)CC(C)(C)C2` (stereo not given), for which the EC50 in assay [11] was > 120 µM (not active); in assay [12], 19.8 µM (active); in assay [13], > 120 µM (not active).
For the molecule `Cc1ccc(Cl)cc1NC(=O)c1ccc(Cn2cc(Cl)cn2)cc1`, the values for the EC50 in assay [11], in assay [12] and in assay [13] were 13.7 µM (active), 12.2 µM (active) and 14.4 µM (active), respectively.
With `O=C1[C@@H]2[C@@H](C(=O)N1c1ccc(OCc3ccccc3)cc1)[C@@H]1c3ccccc3[C@@H]2[n+]2ccccc21`, the concentration at half-maximal activity (AC50) in assay [2] is 3.98 µM (inconclusive).
Consider `CC(C)CNC(=O)COc1ccccc1[N+](=O)[O-]`, for which the EC50 in [5] was > 112 µM (not active); in assay [6], 18.7 µM (active).
In the case of `Cc1cc(Cl)ccc1OCc1cn2cccnc2n1`, in assay [14], the EC50 was > 160 µM (inactive).
Take `c1ccc(-[n+]2nc(Nc3cccc4ccccc34)sc2-c2c3ccccc3cc3ccccc23)cc1`: in assay [15], the AC50 is 3.17 µM (active).
`CC(=O)OC(C)(C)/C=C/C(=O)C(C)(O)C1C(O)CC2(C)C3CC=C4C(CC(O)C(=O)C4(C)C)C3(C)C(=O)CC12C` (stereo not given): in assay [9], the concentration at half-maximal activity (AC50) was < 0.26 µM (active).
With `COc1ccc2c(c1)O[C@@H](c1cccc(C(F)(F)F)c1)[C@H](O)C2=O`, the EC50 in [11], in assay [12] and in [13] was > 120 µM (not active) in each case.
Take `COc1cccc(-c2noc(C3CCCN(C(=O)c4ccccc4OC)C3)n2)c1` (stereo not given): the EC50 in assay [5] and in [6] was > 112 µM (not active) in each case.
As for `CNC(=O)NC(=O)CSc1nnc(-c2ccco2)n1Cc1ccccc1`, the AC50 in [3] is 35.5 µM (inconclusive); in [4], 22.4 µM (inconclusive).
For the molecule `CC(NC(=O)c1cccc(F)c1)C(c1cccs1)N1CCN(C)CC1` (stereo not given), the AC50 is 31.6 µM (inconclusive) in assay [3], 15.8 µM (inconclusive) in [4] and 15.8 µM (inconclusive) in [2].
As to `O=C(/C=C\C=C/c1ccc2c(c1)OCO2)N1CCCCC1`, in assay [2], the AC50 is 12.6 µM (inconclusive).
On the same count and under the same terms, as for `CC#CCCCC(=O)Nc1cc(OC)nc(OC)n1`, the figure is 15.8 µM (inconclusive).
Regarding `CCOC(=O)C(NCCc1ccc(F)cc1)(NC(=O)CC)C(F)(F)F` (stereo not given), in assay [15], the AC50 is > 260 µM (inactive).
Regarding `CCN(CC)c1nc(O)nc(N(CC)CC)n1`, the EC50 in [11] is > 120 µM (not active); in assay [12], 44.7 µM (active); in assay [13], > 120 µM (not active).
In the case of `Nc1nnc(SCc2ccc(Cl)cc2)s1`, the EC50 in assay [5] and in [6] was > 112 µM (not active) each time.
As for `COC(=O)C1(C)CN(S(=O)(=O)c2ccc(C)cc2)c2cc(OC)ccc2C1=O` (stereo not given), the EC50 in assay [5] and in assay [6] was > 112 µM (not active) in each case.
As to `FC(F)(F)c1ccccc1-c1cc(NCCN2CCOCC2)ncn1`, the AC50 is 12.6 µM (inconclusive) in assay [1] and 39.8 µM (inconclusive) in assay [2].
As for `Cc1cc2nc(O)c([C@H](C)C(=O)c3ccc(Cl)cc3)nc2cc1C`, the values for the half-maximal activity concentration (AC50) in assay [3] and in assay [1] were 0.0794 µM (inconclusive) and 0.501 µM (inconclusive), respectively.
With `COc1ccc(NC(=O)Nc2ccc3c(c2)C(=O)N([C@@H](C)CO)C[C@@H](C)[C@@H](CN(C)CC2CCCCC2)OCCCC[C@@H](C)O3)cc1`, the AC50 in assay [9] is 14.5 µM (active).
For the molecule `O=C(NCCc1csc(-c2cccnc2)n1)c1cccs1`, the EC50 in [5] and in assay [6] was > 112 µM (not active) in each case.
Regarding `Cc1nc2sccn2c(=O)c1S(=O)(=O)N1CCN(c2cccc(Cl)c2)CC1`, the EC50 in assay [5] and in [6] was > 112 µM (not active) throughout.
Regarding `COc1ccc(C2C3=C(CC(C)(C)CC3=O)Oc3ncn(CC(C)C)c(=N)c32)cc1` (stereo not given), the AC50 in assay [3] and in assay [10] was 39.8 µM (inconclusive) in each case.
On to `Cc1cc(NC(=O)c2c(F)cccc2F)n(-c2nc3ccccc3[nH]2)n1`, for which the AC50 in assay [10] is 4.47 µM (inconclusive); in assay [4], 3.55 µM (inconclusive); in assay [2], 39.8 µM (inconclusive).
For the molecule `Cc1cc(=O)oc2cc(OCCSCCN3CCOCC3)ccc12`, the EC50 in [5] and in assay [6] was > 112 µM (not active) throughout.
Turning to `CC(C)(C)c1ccc(Oc2ccc(NC(=O)c3ccccc3C(=O)O)cn2)cc1`, the EC50 was 12 µM (active) in assay [11], 11.6 µM (active) in [12] and 11 µM (active) in [13].
Regarding `COc1ccc(Cc2nnc(NC(=O)Cn3cnc4c3c(=O)n(C)c(=O)n4C)s2)cc1OC`, the figures for the half-maximal activity concentration (AC50) in assay [3] and in assay [10] were 28.2 µM (inconclusive) and 20 µM (inconclusive), respectively.
For `COc1cccc(-c2noc(-c3cccnc3)n2)c1`, the AC50 in assay [2] was 20 µM (inconclusive).
